The source of these data is patent publication US9745335B2 (Blirt S.A., priority 2012, dated 2017).

Where two headings read alike, the source gives them in different places. Where only a bound is given, the exact number is not on record here.

Holding throughout (format): cell-based
In data set [1] the test system is Saccharomyces cerevisiae ATCC 9763. Nature of the data set: antifungal activity in vitro, serial dilution in RPMI 1640. The following applies: RPMI 1640, pH 7.0; for Antifungal activity IC50: Saccharomyces cerevisiae ATCC 9763 (first head over MIC and IC50); for Antifungal activity MIC: Saccharomyces cerevisiae ATCC 9763. Here is the method:
(§1) For the determination of antifungal activity in vitro we used method of serial dilution in buffered medium RPMI 1640, pH 7.0, in a 96-wells microplates, according to the standard procedure (National Committee for Clinical Laboratory Standards. Reference method for broth dilution antifungal susceptibility testing of yeast, approved standard, 2nd ed. M27-A2 vol. 22 Wayne, Pa., 2002). The optical density of cells suspension was measured using a microplates reader (Victor^3, Perkin-Elmer) at the wavelength λ=531 nm (A531). On the basis of obtained results the diagrams of relation between A531 values and concentration of examined compound were made.

The test system of data set [2] is Candida albicans ATCC 10231. The description is as above. The protocol:
as §1

Data set [3] deals with Candida glabrata DSM 11226. The data set is described as above. Here is the method:
as §1

Data set [4] has as its system Candida tropicalis KKP 334. The data set is described as above. Here is the method: as §1
In data set [5] the test system is Candida krusei DSM 6128. Described as above. The protocol:
as §1

Data set [6] has as its system Candida lusitaniae DSM 70102. The data set is described as above. Here is the method: as §1
The subject of data set [7] is Human erythrocytes. Nature of the data set: hemotoxicity determination (hemolytic activity). The protocol: The hemotoxicity determination was carried out by the serial dilutions method, according to the procedure described earlier (Slisz, M., et al., E., J Antibiot 57: 669-678 (2004). Human erythrocytes were suspended in the solution of saline to obtain a cell density of suspension 2×10^7/ml. Suitable amounts of diluted solutions of compounds were added to the cell suspension in tubes and were incubated at 37° C. for 30 minutes and then centrifuged (1700×g, 10 min, 4° C.). The concentration of hemoglobin in supernatant after centrifugation of erythrocytes suspension were determined by measuring the absorbance at wavelength λ=540 nm (A540). The maximum level of hemolysis was obtained after incubation of cells suspension in the presence of 0.1% Tritone X-100 (control sample). […] From these graphs, the EH50 values were read which are the interpolated concentrations of compound, for which the A540 value is exactly 50% of the A540 value measured for the control sample.

Setting [8] is: human erythrocytes, 37° C., 30 minutes.

On to `C[C@@H]1[C@H](O)[C@@H](C)/C=C/C=C/C=C/C=C/C=C/C=C/C=C/[C@H](O[C@@H]2O[C@H](C)[C@@H](O)[C@H](NC(=S)Nc3ccccc3)[C@@H]2O)C[C@@H]2O[C@](O)(C[C@@H](O)C[C@@H](O)[C@H](O)CC[C@@H](O)C[C@@H](O)CC(=O)O[C@H]1C)C[C@H](O)[C@H]2C(=O)O` [Compound A23, N-[(3-phenyl)-thioureidyl]amphotericin B], for which the “Antifungal activity IC50” value in data set [1] was found to be 2.54 mg/L. Also, the “Antifungal activity MIC” value is 4 mg/L in data set [1]; 4 mg/L in data set [2]; 8 mg/L in data set [3]; 4 mg/L in data set [4]; 8 mg/L in data set [5]; 4 mg/L in data set [6]. Moreover, the “Hemotoxi EH50” value in data set [7] is above 100 µg/mL.

As for `C[C@@H]1[C@H](O)[C@@H](C)/C=C/C=C/C=C/C=C/C=C/C=C/C=C/[C@H](O[C@@H]2O[C@H](C)[C@@H](O)[C@H](NC(=S)Nc3cccnc3)[C@@H]2O)C[C@@H]2O[C@](O)(C[C@@H](O)C[C@@H](O)[C@H](O)CC[C@@H](O)C[C@@H](O)CC(=O)O[C@H]1C)C[C@H](O)[C@H]2C(=O)O` [Compound A26, N-[3-(pyridin-3-yl)thioureidyl]amphotericin B], the “Antifungal activity IC50” value in data set [1] was 2.55 mg/L. Besides, the “Antifungal activity MIC” value in data set [1] was 4 mg/L; in data set [2], 4 mg/L; in data set [3], 8 mg/L; in data set [4], 4 mg/L; in data set [5], 8 mg/L; in data set [6], 4 mg/L. Also, the “Hemotoxi EH50” value in data set [7] is above 100 µg/mL.

Consider `C[C@@H]1[C@H](O)[C@@H](C)/C=C/C=C/C=C/C=C/C=C/C=C/C=C/[C@H](O[C@@H]2O[C@H](C)[C@@H](O)[C@H](NC(=S)NCc3ccncc3)[C@@H]2O)C[C@@H]2O[C@](O)(C[C@@H](O)C[C@@H](O)[C@H](O)CC[C@@H](O)C[C@@H](O)CC(=O)O[C@H]1C)C[C@H](O)[C@H]2C(=O)O` [Compound A29, N-{[3-(pyridin-4-yl)methyl]thioureidyl}amphotericin B], for which, in data set [1], the “Antifungal activity IC50” value was found to be 2.56 mg/L. For the same compound, the “Antifungal activity MIC” value was determined as 4 mg/L in data set [1]; 4 mg/L in data set [2]; 8 mg/L in data set [3]; 4 mg/L in data set [4]; 8 mg/L in data set [5]; 4 mg/L in data set [6]. In addition, the “Hemotoxi EH50” value in data set [7] is above 100 µg/mL.

Take `C[C@@H]1[C@H](O)[C@@H](C)/C=C/C=C/C=C/C=C/C=C/C=C/C=C/[C@H](O[C@@H]2O[C@H](C)[C@@H](O)[C@H](NC(=O)[C@@H](N)Cc3ccc(I)cc3)[C@@H]2O)C[C@@H]2O[C@](O)(C[C@@H](O)C[C@@H](O)[C@H](O)CC[C@@H](O)C[C@@H](O)CC(=O)O[C@H]1C)C[C@H](O)[C@H]2C(=O)O` [Compound A31, N-L-p-iodophenylalanylamphotericin B]: the “Antifungal activity IC50” value in data set [1] came to 2.52 mg/L. Further, the “Antifungal activity MIC” value turned out to be 4 mg/L in data set [1]; 4 mg/L in data set [2]; 8 mg/L in data set [3]; 4 mg/L in data set [4]; 8 mg/L in data set [5]; 4 mg/L in data set [6]. Besides, in data set [7] (setting [8]), the “Hemotoxi EH50” value is above 100 µg/mL.

As for `C[C@@H]1[C@H](O)[C@@H](C)/C=C/C=C/C=C/C=C/C=C/C=C/C=C/[C@H](O[C@@H]2O[C@H](C)[C@@H](O)[C@H](NC(=O)[C@@H](N)CSC(C)(C)C)[C@@H]2O)C[C@@H]2O[C@](O)(C[C@@H](O)C[C@@H](O)[C@H](O)CC[C@@H](O)C[C@@H](O)CC(=O)O[C@H]1C)C[C@H](O)[C@H]2C(=O)O` [Compound A37, N-L-(S-tert-butyl)cystylamphotericin B], the “Antifungal activity IC50” value in data set [1] is 1.28 mg/L. Besides, the “Antifungal activity MIC” value in data set [1] was 2 mg/L; in data set [2], 2 mg/L; in data set [3], 4 mg/L; in data set [4], 2 mg/L; in data set [5] it was 4 mg/L; in data set [6], 1 mg/L. In addition, in data set [7], the “Hemotoxi EH50” value was above 100 µg/mL.

Turning to `C[C@@H]1[C@H](O)[C@@H](C)/C=C/C=C/C=C/C=C/C=C/C=C/C=C/[C@H](O[C@@H]2O[C@H](C)[C@@H](O)[C@H](NC(=O)C(N)Cc3ccccc3F)[C@@H]2O)C[C@@H]2O[C@](O)(C[C@@H](O)C[C@@H](O)[C@H](O)CC[C@@H](O)C[C@@H](O)CC(=O)O[C@H]1C)C[C@H](O)[C@H]2C(=O)O` (stereo partly shown) [Compound A38, N-o-fluorophenylalanylamphotericin B], in data set [1], the “Antifungal activity IC50” value was determined as 1.92 mg/L. The “Antifungal activity MIC” value in data set [1] is 4 mg/L; in data set [2] it was 2 mg/L; in data set [3], 4 mg/L; in data set [4], 4 mg/L; in data set [5] it was 4 mg/L; in data set [6], 2 mg/L. Moreover, the “Hemotoxi EH50” value in data set [7] (setting [8]) is above 100 µg/mL.

Take `C[C@@H]1[C@H](O)[C@@H](C)/C=C/C=C/C=C/C=C/C=C/C=C/C=C/[C@H](O[C@@H]2O[C@H](C)[C@@H](O)[C@H](NC(=O)[C@H](N)COC(C)(C)C)[C@@H]2O)C[C@@H]2O[C@](O)(C[C@@H](O)C[C@@H](O)[C@H](O)CC[C@@H](O)C[C@@H](O)CC(=O)O[C@H]1C)C[C@H](O)[C@H]2C(=O)O` [Compound A40, N-D-(O-tert-butyl)serylamphotericin B]: the “Antifungal activity IC50” value in data set [1] came to 1.35 mg/L. For the same compound, the “Antifungal activity MIC” value in data set [1] was found to be 2 mg/L; in data set [2], 2 mg/L; in data set [3], 4 mg/L; in data set [4], 4 mg/L; in data set [5], 4 mg/L; in data set [6], 2 mg/L. The “Hemotoxi EH50” value in data set [7] (setting [8]) was above 200 µg/mL.

For the compound “N-D-β-naphtylalanylamphotericin B [Compound A32]”, the “Antifungal activity IC50” value in data set [1] turned out to be 3.01 mg/L. Also, the “Antifungal activity MIC” value in data set [1] turned out to be 4 mg/L; in data set [2] it was 8 mg/L; in data set [3], 8 mg/L; in data set [4], 8 mg/L; in data set [5] it was 8 mg/L; in data set [6], 4 mg/L. Also, the “Hemotoxi EH50” value in data set [7] is above 100 µg/mL.
